Legend:
[1] = following oral administration; cited from earlier work
aMCI subjects [2] = test: Explicit 3-alternative forced choice task performance (Examples 2 and 3); type: in vivo, human
aged-impaired (AI) rats = test: Radial Arm Maze task, one-hour delay, levetiracetam (Example 1); type: in vivo, rat
Method: The effects of levetiracetam on the spatial memory retention of aged-impaired (AI) rats were assessed in a Radial Arm Maze (RAM) behavioral task using vehicle control and five different dosage levels of levetiracetam (1.25 mg/kg/day, 2.5 mg/kg/day, 5 mg/kg/day, 10 mg/kg/day and 20 mg/kg/day). RAM behavioral tasks were performed on ten AI rats. All six treatment conditions were tested on all ten rats, as described above for the MWM test. The RAM apparatus used consisted of eight equidistantly spaced arms. An elevated maze arm (7 cm width×75 cm length) projected from each facet of an octagonal center platform (30 cm diameter, 51.5 cm height). […] A food well (4 cm diameter, 2 cm deep) was located at the distal end of each arm. Froot Loops' (Kellogg Company) were used as rewards. […] Numerous extra maze cues surrounding the apparatus were also provided. The AI rats were initially subjected to a pre-training test (Chappell et al. Neuropharmacology 37: 481-487, 1998). […] In the habituation phase, rats were familiarized to the maze for an 8-minute session on four consecutive days. […] To counterbalance any potential bias, drug effect was assessed using ascending-descending dose series, i.e., the dose series was given first in an ascending order and then repeated in a descending order. […]

aMCI subjects [3] = test: Neuropsychological tests outside the scanner (Buschke, Benton, Verbal Paired Associates); type: in vivo, human; conditions: levetiracetam 125 mg twice a day for two weeks
[4] = test system: aged-impaired (AI) Long-Evans rats; test: Morris Water Maze retention trial, levetiracetam (Example 1); type: in vivo, rat; conditions: levetiracetam 5 mg/kg/day i.p.; retention trial 24 hours after last training trial
Method: Six aged-impaired (AI) Long-Evans rats (as characterized above) were tested for their memory of new spatial information in the Morris water maze (MWM), under different drug/control treatment conditions (vehicle control and two different dosage levels of levetiracetam). A retention trial was performed after the training trials, as described below. The MWM apparatus consists of a large, circular pool (diameter 1.53 m; height, 0.58 m) filled with water (27° C.) that is made opaque through the addition of non-toxic pigment or some other substance. In the typical “hidden platform” version of the test, rats are trained to find a camouflaged white escape platform (height, 34.5 cm) that is positioned in the center of one quadrant of the maze about 1.0 cm below the water surface. This platform can be retracted to the bottom of the tank or raised to its normal position from outside the maze during behavioral testing. The location of the platform remains constant from trial to trial. […] The behavior of a rat in the pool is recorded by a camera that is suspended 2.5 m above the center of the pool. […] In the retention trial, the time the AI rats spent swimming in the target quadrant is measured and further plotted as a percentage of total swimming time. […]

CC[C@@H](C(N)=O)N1CCCC1=O [levetiracetam, (2S)-2-(2-oxopyrrolidin-1-yl)butanamide]
time of peak plasma concentrations [1]: about 1 hour | performance in the explicit 3-alternative forced choice task (aMCI subjects [2]; levetiracetam 62.5 mg BID for two weeks): improves significantly | performance in the explicit 3-alternative forced choice task (aMCI subjects [2]; levetiracetam 125 mg twice a day for two weeks): improves significantly | performance in the explicit 3-alternative forced choice task (aMCI subjects [2]; levetiracetam 250 mg BID for two weeks): does not significantly improve | effective doses of levetiracetam in the animal model (radial arm maze errors) (aged-impaired (AI) rats; AI rats, levetiracetam on its own): 5 to 10 mg/kg | reduction of the number of errors in the radial arm maze (aged-impaired (AI) rats; levetiracetam on its own at 1.25 mg/kg or 2.5 mg/kg): not at 1.25 mg/kg or 2.5 mg/kg | performance in Buschke Selective Reminding Test-Delayed Recall, Benton Visual Retention Test, Verbal Paired Associates Test-Recognition and -Delayed Recall (aMCI subjects [3]): fail to rescue performance | time spent in the target quadrant vs vehicle [4]: did not significantly improve
